The record followed here is patent US9126986B2, “Hetero-bicyclic derivatives as HCV inhibitors” (Janssen R&D Ireland, priority 2011, dated 2015).

Like-named read-outs stand apart in the source and are kept apart here.

A short description of data set [1]: Counterscreen Huh7-CMV-Luc. The following applies: Huh-7 hepatoma cell line with human CMV major immediate-early promoter-Luc construct. The class given is cell-based. From the text: (§1) Counterscreen cell lines included a Huh-7 hepatoma cell line containing a human cytomegalovirus major immediate-early promoter-Luc construct (Huh7-CMV-Luc) and an MT4 T-cell line containing a long terminal repeat-Luc reporter (MT4-LTR-Luc).

Data set [2] is described as follows: Counterscreen MT4-LTR-Luc. The class given is cell-based. The following applies: human; MT4 T-cell line with long terminal repeat-Luc reporter.
Text: as §1

The subject of data set [3] is HCV subgenomic replicon genotype 1a H77 in Huh-7 lunet cells. Nature of the data set: HCV replicon assay, transient transfection, genotype 1a H77. The class given is cell-based, HCV genotype 1a H77. The following applies: transiently transfected Huh-7 lunet, genotype 1a H77, two days incubation, luciferase. From the text: (§2) In a transient set-up, a Huh-7 lunet hepatoma cell line was transiently transfected with an autonomously replicating RNA encoding a bi-cistronic expression construct. This construct comprises a firefly luciferase reporter gene preceding the NS3-NS5B subgenomic region of HCV (genotype 1a H77 or 1b Con1). Translation of the HCV subgenomic region is mediated by an internal ribosome entry site of encephalomyocarditis virus. The construct is furthermore flanked by 5′ and 3′ untranslated regions of HCV (genotype 1a H77 or 1b Con 1, respectively), which allow for replication of the RNA.
(§3) Cells were plated in 384 well plates in the presence of test and control compounds, which were added in various concentrations. Following an incubation of two days, replication of the HCV subgenomic replicon RNA was measured by assaying luciferase activity (using standard luciferase assay substrates and reagents and a Perkin Elmer ViewLux™ ultraHTS microplate imager). HCV subgenomic replicon containing cells in the control cultures have high luciferase expression in the absence of any inhibitor. The inhibitory activity of the compound was monitored, enabling a dose-response curve for each test compound. EC50 values were then calculated, which represent the amount of compound required to decrease the level of detected luciferase activity by 50%, or more specifically, to reduce the ability of the genetically linked HCV subgenomic RNA to replicate.

In data set [4] the test system is HCV replicon type 1b in Huh-Luc cells. Nature of the data set: HCV replicon assay, stable transfection (Huh-7 luc/neo, luciferase readout). As to conditions: stably transfected Huh-Luc cells, genotype 1b, three days incubation, average where tested more than once, read-out: HCV-REP-HUH7LUC_EC50. The class given is cell-based, HCV type 1b. The text has this: The compounds of formula (I) were examined for inhibitory activity in the HCV replicon. This cellular assay is based on a bicistronic expression construct, as described by Lohmann et al. (Science (1999) 285: 110-113; Journal of Virology (2003) 77: 3007-3019) with modifications described by Krieger et al. (Journal of Virology (2001) 75: 4614-4624), and Lohmann et al. (Journal of Virology (2003) 77: 3007-3019) for genotype 1b and by Yi et al. (Journal of Virology (2004) 78: 7904-7915) for genotype 1a, in a multi-target screening strategy.
The method was as follows. The assay utilized the stably transfected cell line Huh-7 luc/neo (hereafter referred to as Huh-Luc). This cell line harbors an RNA encoding a bicistronic expression construct comprising the wild type NS3-NS5B regions of HCV type 1b translated from an Internal Ribosome Entry Site (IRES) from encephalomyocarditis virus (EMCV), preceded by a reporter portion (FfL-luciferase), and a selectable marker portion (neoR, neomycine phosphotransferase). The construct is flanked by 5′ and 3′ NTRs (non-translated regions) from HCV type 1b. Continued culture of the replicon cells in the presence of G418 (neoR) is dependent on the replication of the HCV RNA. The stably transfected replicon cells that replicate HCV RNA autonomously and to high levels, encoding inter alia luciferase, were used for screening the antiviral compounds.
The replicon cells were plated in 384 well plates in the presence of the test and control compounds which were added in various concentrations. Following an incubation of three days, HCV replication was measured by assaying luciferase activity (using standard luciferase assay substrates and reagents and a Perkin Elmer ViewLux™ ultraHTS microplate imager). Replicon cells in the control cultures have high luciferase expression in the absence of any inhibitor. The inhibitory activity of the compound was monitored on the Huh-Luc cells, enabling a dose-response curve for each test compound. EC50 values were then calculated, which represent the amount of compound required to decrease the level of detected luciferase activity by 50%, or more specifically, to reduce the ability of the genetically linked HCV replicon RNA to replicate.
Where a compound of formula (I) was tested more than once in the replicon assay, the average of all test results is given in this Table 1.

The test system of data set [5] is HCV subgenomic replicon genotype 1b Con1 in Huh-7 lunet cells. Briefly: HCV replicon assay, transient transfection, genotype 1b Con1. The class given is cell-based, HCV genotype 1b Con1. The following applies: transiently transfected Huh-7 lunet, genotype 1b Con1, two days incubation, luciferase.
Text: as §2, §3

Data set [6] has as its system MT4-LTR-Luc cells. Briefly: Counterscreen MT4-LTR-Luc. The class given is cell-based. As to conditions: MT4 T-cell line with long terminal repeat-Luc reporter.
Text: as §1

Turning to `COC(=O)N[C@H](C(=O)N1CCCC1c1cc(=O)c2ccc(-c3ccc4c(c3)C(F)(F)c3cc(-c5c[nH]c([C@@H]6CCCN6C(=O)[C@@H](NC(=O)OC)C(C)C)n5)ccc3-4)cc2[nH]1)C(C)C` (single isomer, unassigned) [Compound 5a], the CC50 in data set [1] and in data set [2] was greater than 984 nM throughout. In addition, the EC50 in data set [3] was 0.007 nM; in data set [4], 0.014 nM; in data set [5], 0.013 nM.

In the case of `COC(=O)N[C@H](C(=O)N1CCCC1c1[nH]c2cc(-c3ccc(-c4ccc(-c5cnc([C@@H]6CCCN6C(=O)[C@@H](NC(=O)OC)C(C)C)[nH]5)cc4)cc3)ccc2c(=O)c1F)C(C)C` (single isomer, unassigned) [Compound 18a], the cytotoxic concentration (CC50) in data set [1] and in data set [2] was greater than 984 nM in each case. In addition, the EC50 was 0.011 nM in data set [3], 0.03 nM in data set [4] and 0.037 nM in data set [5].

Regarding `COC(=O)N[C@H](C(=O)N1CCC[C@H]1c1ncc(-c2ccc3c(c2)C(F)(F)c2cc(-c4ccc5c(=O)cc([C@@H]6[C@H]7CC[C@H](C7)N6C(=O)[C@@H](NC(=O)OC)C(C)C)[nH]c5c4)ccc2-3)[nH]1)C(C)C` [Compound 8], the results for the half-maximal cytotoxic concentration (CC50) in data set [1] and in data set [2] were greater than 984 nM and 770 nM, respectively. Further, the EC50 was determined as 0.003 nM in data set [3] (Hepatitis C virus, Huh-7, 48 h); 0.004 nM in data set [4] (Hepatitis C virus, Huh-7, 72 h); 0.005 nM in data set [5] (Hepatitis C virus, Huh-7, 48 h).

As to `COC(=O)N[C@H](C(=O)N1CCC[C@H]1C1=NS(=O)(=O)c2ccc(-c3ccc4c(c3)C(F)(F)c3cc(-c5cnc([C@@H]6CCCN6C(=O)[C@@H](NC(=O)OC)C(C)C)[nH]5)ccc3-4)cc2N1)C(C)C` [Compound 14], the CC50 in data set [1] and in data set [2] was greater than 984 nM in each case. The EC50 was found to be 0.005 nM in data set [3] (Hepatitis C virus, Huh-7, 48 h); 0.008 nM in data set [4] (Hepatitis C virus, Huh-7, 72 h); 0.017 nM in data set [5] (Hepatitis C virus, Huh-7, 48 h).

As to `COC(=O)N[C@H](C(=O)N1CCC[C@H]1c1ncc(-c2ccc3c(c2)C(F)(F)c2cc(-c4ccc5c(=O)cc([C@@H]6C[C@@H]7CCCC[C@@H]7N6C(=O)[C@@H](NC(=O)OC)C(C)C)[nH]c5c4)ccc2-3)[nH]1)C(C)C` [Compound 6], the CC50 in data set [1] and in data set [2] was greater than 984 nM throughout. For the same molecule, the EC50 in data set [3] (Hepatitis C virus, Huh-7, 48 h) amounted to 0.005 nM; in data set [4] (Hepatitis C virus, Huh-7, 72 h), 0.012 nM; in data set [5] (Hepatitis C virus, Huh-7, 48 h), 0.013 nM.

Take `COC(=O)N[C@H](C(=O)N1CCC[C@H]1c1nc(-c2ccc(-c3ccc(-c4ccc5c(=O)nc([C@@H]6CCCN6C(=O)[C@@H](NC(=O)OC)C(C)C)[nH]c5c4)cc3)cc2)c[nH]1)C(C)C` [Compound 11]: the CC50 in data set [1] and in data set [2] was greater than 984 nM each time. Moreover, the EC50 in data set [3] (Hepatitis C virus, Huh-7, 48 h) was 1.47 nM; in data set [4] (Hepatitis C virus, Huh-7, 72 h), 0.149 nM; in data set [5] (Hepatitis C virus, Huh-7, 48 h), 0.025 nM.

For `COC(=O)N[C@H](C(=O)N1CCC[C@H]1C1=NC2(COC2)c2ccc(-c3ccc4c(c3)C(F)(F)c3cc(-c5cnc([C@@H]6CCCN6C(=O)[C@@H](NC(=O)OC)C(C)C)[nH]5)ccc3-4)cc2N1)C(C)C` [Compound 16], the 50% cytotoxic concentration (CC50) in data set [1] and in data set [2] was greater than 984 nM in each case. The EC50 in data set [3] (Hepatitis C virus, Huh-7, 48 h) came to 0.04 nM; in data set [4] (Hepatitis C virus, Huh-7, 72 h), 0.011 nM; in data set [5] (Hepatitis C virus, Huh-7, 48 h), 0.033 nM.

Consider `COC(=O)N[C@H](C(=O)N1CCC[C@H]1c1ncc(-c2ccc3c(c2)C(F)(F)c2cc(-c4ccc5c(=O)[nH]c([C@@H]6CCCN6C(=O)[C@@H](NC(=O)OC)C(C)C)nc5c4)ccc2-3)[nH]1)C(C)C` [Compound 12], for which the CC50 in data set [1] was greater than 984 nM. In addition, the EC50 in data set [3] (Hepatitis C virus, Huh-7, 48 h) is 0.047 nM; in data set [4] (Hepatitis C virus, Huh-7, 72 h), 0.007 nM; in data set [5] (Hepatitis C virus, Huh-7, 48 h) it was 0.005 nM.

Regarding `COC(=O)N[C@H](C(=O)N1CCCC1c1cc(=O)c2ccc(-c3ccc(-c4ccc(-c5cnc([C@@H]6CCCN6C(=O)[C@@H](NC(=O)OC)C(C)C)[nH]5)cc4)cc3)cc2[nH]1)C(C)C` (single isomer, unassigned) [Compound 3b], the cytotoxic concentration (CC50) in data set [6] is greater than 984 nM. Also, the figures for the EC50 in data set [3], in data set [4] and in data set [5] were 0.941 nM, 1.13 nM and 1.36 nM, respectively.

Take `COC(=O)N[C@H](C(=O)N1CCC[C@H]1C1=NC2(COC2)c2ccc(-c3ccc(-c4ccc(-c5cnc([C@@H]6CCCN6C(=O)[C@@H](NC(=O)OC)C(C)C)[nH]5)cc4)cc3)cc2N1)C(C)C` [Compound 20]: the half-maximal cytotoxic concentration (CC50) in data set [1] and in data set [2] was greater than 984 nM in each case. Besides, the EC50 was 0.46 nM in data set [3] (Hepatitis C virus, Huh-7, 48 h); 0.023 nM in data set [4] (Hepatitis C virus, Huh-7, 72 h); less than 0.019 nM in data set [5] (Hepatitis C virus, Huh-7, 48 h).

Take `COC(=O)N[C@H](C(=O)N1CCC[C@H]1c1cc(=O)c2cc(F)c(-c3ccc(-c4ccc(-c5cnc([C@@H]6CCCN6C(=O)[C@@H](NC(=O)OC)C(C)C)[nH]5)cc4)cc3)cc2[nH]1)C(C)C` [Compound 7]: the CC50 in data set [1] and in data set [2] was greater than 984 nM each time. The EC50 in data set [3] (Hepatitis C virus, Huh-7, 48 h) is 0.042 nM; in data set [4] (Hepatitis C virus, Huh-7, 72 h), 0.008 nM; in data set [5] (Hepatitis C virus, Huh-7, 48 h), 0.021 nM.

As for `COC(=O)N[C@H](C(=O)N1CCC[C@H]1C1=NS(=O)(=O)c2ccc(-c3ccc(-c4ccc(-c5c[nH]c([C@@H]6CCCN6C(=O)[C@@H](NC(=O)OC)C(C)C)n5)cc4)cc3)cc2N1)C(C)C` [Compound 22], the CC50 in data set [1] and in data set [2] was greater than 984 nM each time. The EC50 stood at 0.054 nM in data set [3] (Hepatitis C virus, Huh-7, 48 h); 0.012 nM in data set [4] (Hepatitis C virus, Huh-7, 72 h); 0.012 nM in data set [5] (Hepatitis C virus, Huh-7, 48 h).

Turning to `COC(=O)N[C@H](C(=O)N1CC2(C[C@H]1c1ncc(-c3ccc4c(c3)C(F)(F)c3cc(-c5ccc6c(=O)[nH]c([C@@H]7C[C@@H]8CCCC[C@@H]8N7C(=O)[C@@H](NC(=O)OC)C(C)C)nc6c5)ccc3-4)[nH]1)OCCO2)C(C)C` [Compound 23], the CC50 in data set [1] and in data set [2] was greater than 984 nM each time. Further, the EC50 came out at 0.005 nM in data set [3] (Hepatitis C virus, Huh-7, 48 h); 0.006 nM in data set [4] (Hepatitis C virus, Huh-7, 72 h); 0.005 nM in data set [5] (Hepatitis C virus, Huh-7, 48 h).

For the molecule `COC(=O)N[C@H](C(=O)N1CCCC1c1cc(=O)c2ccc(-c3ccc(-c4ccc(-c5cnc([C@@H]6CCCN6C(=O)[C@@H](NC(=O)OC)C(C)C)[nH]5)cc4)cc3)cc2[nH]1)C(C)C` (single isomer, unassigned) [Compound 3a], the CC50 in data set [1] and in data set [2] was greater than 984 nM throughout. Besides, the EC50 in data set [3] was 0.008 nM; in data set [4], 0.021 nM; in data set [5], 0.025 nM.

`COC(=O)N[C@H](C(=O)N1CCCC1c1cc(=O)c2ccc(-c3ccc4c(c3)C(F)(F)c3cc(-c5c[nH]c([C@@H]6CCCN6C(=O)[C@@H](NC(=O)OC)C(C)C)n5)ccc3-4)cc2[nH]1)C(C)C` (single isomer, unassigned) [Compound 5b] came in with a half-maximal cytotoxic concentration (CC50) in data set [6] greater than 984 nM. The EC50 in data set [3] was 0.21 nM; in data set [4], 0.228 nM; in data set [5], 0.63 nM.
